In patent US10800789B2, “Antiviral compounds” (Gilead Pharmasset LLC, priority 2012, dated 2020):
Like-named read-outs stand apart in the source and are kept apart here.

Key:
[1] = test system: stable HCV 2a JFH-1 Rluc replicon cells (L31 present in NS5A); assay: Renilla luciferase HCV replicon reporter assay, genotype 2a JFH-1; type: cell-based; conditions: Hepatitis C virus
How it was run: (§1)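 Antiviral EC50 was determined in HCV replicon cells (stable RLuc lines for 1a H77, 1b Con1, 2a JFH-1 with NS5A L31; J6 NS5A chimera with M31) treated 72 h with compound. Renilla luciferase was then quantified.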

[2] = test system: stable HCV 1a RLuc replicon cells (dicistronic genotype 1a H77 replicon); assay: Renilla luciferase HCV replicon reporter assay, genotype 1a; type: cell-based; conditions: Hepatitis C virus, 72 h, stable 1a H77 RLuc replicon cells
How it was run: as §1

[3] = test system: Q30R in genotype 1a NS5A (1a Pi-Rluc replicon, Huh-7-derived cured-51 cells); assay: Replicon assay against resistance mutant 1a Q30R; type: cell-based, HCV; conditions: Hepatitis C virus
Procedure: Antiviral potency (EC50) was determined using a Renilla luciferase (RLuc)-based HCV replicon reporter assay. To perform the assay for genotype 1 and 2a JFH-1, stable HCV 1a RLuc replicon cells (harboring a dicistronic genotype 1a H77 replicon that encodes a RLuc reporter), stable HCV 1b RLuc replicon cells (harboring a dicistronic genotype 1b Con1 replicon that encodes a RLuc reporter), or stable HCV 2a JFH-1 Rluc replicon cells (harboring a dicistronic genotype 2a JFH-1 replicon that encodes a RLuc reporter; with L31 present in NS5A) were dispensed into 384-well plates for EC50 assays. To perform the assay for genotype 2a (with M31 present in NS5A) or 2b, NS5A chimeric genotype 2a JFH-1 replicons that encodes a RLuc-Neo reporter and either genotype 2a J6 strain NS5A gene or genotype 2b MD2b-1 strain NS5A gene (both with M31 present) respectively, were either transiently transfected (t) into Huh-Lunet cells or were established as stably replicating replicon cells (s) is provided. Either cells were dispensed into 384-well plates for EC50 assays. To perform the assay for genotype 3 and 4, NS5A chimeric genotype 1b Con1 replicons that encodes a Pi-RLuc reporter and either genotype 3a S52 strain NS5A gene or genotype 4a ED43 strain NS5A gene respectively, were transiently transfected (t) into Huh-Lunet cells, which were subsequently dispensed into 384-well plates. Compounds were dissolved in DMSO at a concentration of 10 mM and diluted in DMSO either manually or using an automated pipeting instrument. Serially 3-fold diluted compounds were either manually mixed with cell culture media and added to the seeded cells or directly added to the cells using an automated instrument. DMSO was used as a negative (solvent; no inhibition) control, and the protease inhibitor ITMN-191 was included at a concentration>100×EC50 as a positive control. 72 hours later, cells were lysed and Renilla luciferase activity quantified as recommended by the manufacturer (Promega-Madison, Wis.). Non-linear regression was performed to calculate EC50 values.
To determine the antiviral potency (EC50) against resistance mutants, resistance mutations, including M28T, Q30R, Q30H, Q30E, L31M, Y93C, Y93H, and Y93N in genotype 1a NS5A, Y93H and L31V/Y93H in genotype 1b NS5A, and Y93H for in genotype 3a NS5A, were introduced individually into either 1a Pi-Rluc or 1b Pi-Rluc replicons by site directed mutagenesis. Replicon RNA of each resistant mutant was transiently transfected into Huh-7-derived cured-51 cells and antiviral potency was determined on these transfected cells as described above.

[4] = test system: NS5A chimeric genotype 1b Con1 replicon with genotype 3a S52 strain NS5A gene; assay: Replicon assay, genotype 3a NS5A chimera; type: cell-based, HCV; conditions: Hepatitis C virus
[5] = test system: NS5A chimeric genotype 2a JFH-1 replicon with genotype 2b MD2b-1 strain NS5A gene (M31 present); assay: Replicon assay, genotype 2b NS5A chimera; type: cell-based, HCV; conditions: Hepatitis C virus
How it was run: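 Cells carrying the stable or transiently transfected (Huh-Lunet) dicistronic RLuc replicons received 3-fold serial compound dilutions from 10 mM DMSO stocks. After 72 h, cells were lysed and Renilla luciferase read. DMSO served as the no-inhibition control and ITMN-191 above 100×EC50 as the positive control; EC50 by non-linear regression.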

[6] = test system: stable HCV 1b RLuc replicon cells (dicistronic genotype 1b Con1 replicon); assay: Renilla luciferase HCV replicon reporter assay, genotype 1b; type: cell-based; conditions: Hepatitis C virus, 72 h, stable 1b Con1 RLuc replicon cells, 72 hours; read-out: 1b
How it was run: as §1

[7] = test system: NS5A chimeric genotype 1b Con1 replicon with genotype 4a ED43 strain NS5A gene; assay: Replicon assay, genotype 4a NS5A chimera; type: cell-based, HCV; conditions: Hepatitis C virus
[8] = test system: NS5A chimeric genotype 2a JFH-1 replicon with genotype 2a J6 strain NS5A gene (M31 present); assay: Replicon assay, genotype 2a J6 NS5A chimera; type: cell-based, HCV; conditions: Hepatitis C virus
How it was run: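 EC50 was fitted by non-linear regression to Renilla luciferase signal after 72 h of exposure to 3-fold serially diluted compound (10 mM DMSO stocks). Controls were DMSO (none) and ITMN-191 above 100×EC50 (full). Chimeric 2a replicons were used either stable or transiently transfected into Huh-Lunet cells.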

[9] = read-out: 2a JFH (nM), genotype 2a JFH-1 replicon (L31 in NS5A), stable cells
[10] = read-out: 2a JFH, stable 2a JFH-1 Rluc replicon cells, L31 in NS5A, activity range
[11] = read-out: 3a (s) (nM), genotype 3a NS5A chimeric replicon, stable replicon cells (s)
[12] = read-out: 3a (s), (s), activity range
[13] = 2BS, read-out: 2b (s), stably replicating replicon cells (s), activity range
[14] = read-out: 2b (s) (nM), genotype 2b MD2b-1 NS5A chimeric replicon (M31), stably replicating replicon cells (s)
[15] = read-out: 4a (s) (nM), genotype 4a NS5A chimeric replicon, stable replicon cells (s)
[16] = read-out: 4a (s), (s), activity range
[17] = read-out: 2a J6 (t) (nM), genotype 2a J6 NS5A chimeric replicon (M31), transiently transfected (t) into Huh-Lunet cells
[18] = read-out: 2a J6 (t), transiently transfected (t) into Huh-Lunet cells, activity range
[19] = read-out: 3a (t) (nM), genotype 3a NS5A chimeric replicon, transiently transfected (t)
[20] = read-out: 3a (t), transiently transfected (t) into Huh-Lunet cells, activity range

Compound | EC50 [1, 9] [nM] | EC50 [1, 10] [nM] | EC50 [2] [nM] | EC50 ([2]; activity range) [nM] | EC50 ([3]; read-out: 1a Q30R) [nM] | EC50 ([3]; read-out: 1a Q30R (nM)) [nM] | EC50 [4, 11] [nM] | EC50 [4, 12] [nM] | EC50 [5, 13] [nM] | EC50 [5, 14] [nM] | EC50 [6] [nM] | EC50 [7, 15] [nM] | EC50 [7, 16] [nM] | EC50 [8, 17] [nM] | EC50 [8, 18] [nM] | EC50 [4, 19] [nM] | EC50 [4, 20] [nM] | EC50 ([5]; read-out: 2b (t) (nM), genotype 2b MD2b-1 NS5A chimeric replicon (M31), transiently transfected (t)) [nM] | EC50 ([5]; read-out: 2b (t), transiently transfected (t) into Huh-Lunet cells, activity range) [nM]
COC(=O)N[C@H](C(=O)N1[C@@H](C)CC[C@H]1c1ncc(-c2ccc3c(c2)COc2cc4c(ccc5nc([C@@H]6CC[C@H](C)N6C(=O)[C@@H](NC(=O)OC)[C@H](C)OC)[nH]c54)cc2-3)[nH]1)C(C)C [FK, Methyl [(2S)-1-{(2S,5S)-2-[5-(2-{(2S,5S)-1-[N-(methoxycarbonyl)-O-methyl-L-allothreonyl]-5-methylpyrrolidin-2-yl}-1,11-dihydroisochromeno[4′,3′:6,7]naphtho[1,2-d]imidazol-9-yl)-1H-imidazol-2-yl]-5-methylpyrrolidin-1-yl}-3-methyl-1-oxobutan-2-yl]carbamate] | 0.038 | < 0.1 | 0.024 | < 0.1 | 0.1 to 0.999 | 0.498 | 0.137 | 0.1 to 0.999 | 0.1 to 0.999 | 0.476 | 0.037 | 0.018 | < 0.1 | 0.4 | 0.1 to 0.999 |  |  |  | 
COC(=O)N[C@H](C(=O)N1[C@@H](C)CC[C@H]1c1nc(Cl)c(-c2ccc3c(c2)COc2cc4c(ccc5nc([C@@H]6CC[C@H](C)N6C(=O)[C@@H](NC(=O)OC)[C@@H](C)OC)[nH]c54)cc2-3)[nH]1)[C@@H](C)OC [GB, Methyl [(2S,3R)-1-{(2S,5S)-2-[9-(4-chloro-2-{(2S,5S)-1-[N-(methoxycarbonyl)-O-methyl-L-threonyl]-5-methylpyrrolidin-2-yl}-1H-imidazol-5-yl)-1,11-dihydroisochromeno[4′,3′:6,7]naphtho[1,2-d]imidazol-2-yl]-5-methylpyrrolidin-1-yl}-3-methoxy-1-oxobutan-2-yl]carbamate] | 0.011 | < 0.1 | 0.016 | < 0.1 | < 0.1 | 0.075 | 0.029 | < 0.1 | < 0.1 | 0.089 | 0.019 | 0.007 | < 0.1 | 0.023 | < 0.1 | 0.034 | < 0.1 |  | 
COC(=O)N[C@H](C(=O)N1[C@@H](C)CC[C@H]1c1nc(C)c(-c2ccc3c(c2)COc2cc4c(ccc5nc([C@@H]6CC[C@H](C)N6C(=O)[C@@H](NC(=O)OC)[C@@H](C)OC)[nH]c54)cc2-3)[nH]1)[C@@H](C)OC [GD, Methyl [(2S,3R)-3-methoxy-1-{(2S,5S)-2-[9-(2-{(2S,5S)-1-[N-(methoxycarbonyl)-O-methyl-L-threonyl]-5-methylpyrrolidin-2-yl}-4-methyl-1H-imidazol-5-yl)-1,11-dihydroisochromeno[4′,3′:6,7]naphtho[1,2-d]imidazol-2-yl]-5-methylpyrrolidin-1-yl}-1-oxobutan-2-yl]carbamate] | 0.035 | < 0.1 | 0.019 | < 0.1 | 0.1 to 0.999 | 0.105 | 0.07 | < 0.1 | < 0.1 | 0.09 | 0.027 | 0.018 | < 0.1 | 0.04 | < 0.1 | 0.042 | < 0.1 |  | 
COC[C@H]1C[C@@H](c2ncc(-c3ccc4c(c3)c(=O)oc3cc5c(ccc6nc([C@@H]7CC[C@H](C)N7C(=O)[C@@H](NC(=O)OC)C(C)C)[nH]c65)cc34)[nH]2)N(C(=O)[C@H](NC(=O)OC)c2ccccc2)C1 [GK, methyl {(1R)-2-[(2S,4S)-2-(5-{2-[(2S,5S)-1-{(2S)-2-[(methoxycarbonyl)amino]-3-methylbutanoyl}-5-methylpyrrolidin-2-yl]-11-oxo-1,11-dihydroisochromeno[4′,3′:6,7]naphtho[1,2-d]imidazol-9-yl}-1H-imidazol-2-yl)-4-(methoxymethyl)pyrrolidin-1-yl]-2-oxo-1-phenylethyl}carbamate] | 0.024 | < 0.1 | 0.031 | < 0.1 | 0.1 to 0.999 | 0.111 | 0.156 | 0.1 to 0.999 | 0.1 to 0.999 | 0.187 | 0.036 | 0.028 | < 0.1 | 0.071 | < 0.1 |  |  | 0.087 | < 0.1
CC[C@H]1C[C@@H](c2nc3ccc4cc5c(cc4c3[nH]2)OCc2cc(-c3cnc([C@@H]4CC[C@H](C)N4C(=O)[C@@H](NC(=O)OC)C(C)C)[nH]3)ccc2-5)N(C(=O)[C@@H](NC(=O)OC)C2CCOCC2)C1 [GV] | 0.008 | < 0.1 | 0.018 | < 0.1 | < 0.1 | 0.061 | 0.042 | < 0.1 | 0.1 to 0.999 | 0.112 | 0.027 | 0.016 | < 0.1 | 0.012 | < 0.1 |  |  |  | 
